Reference: PMC11475570, “Impact of Optimized Ku–DNA Binding Inhibitors on the Cellular and In Vivo DNA Damage Response” (Cancers, 2024)

What was measured:
H460 NSCLC cells = test: Cellular uptake by HPLC; type: in vitro ADME, Human; conditions: H460, 10 µM
Description: Cellular uptake was evaluated in two NSCLC cell lines, H460 and A549. Cells were seeded into 6-well plates at a density of 1 × 10^6 cells per well and cultured as monolayers at 37 °C and 5% CO2 for 18–24 h. Ku-DBis were added to the media at a concentration of 10 µM and incubation continued for the times indicated. Media were removed, cells were washed 3 times with PBS, 1 mL of methanol was added to each well, and cells were agitated overnight at 4 °C. The methanol was collected, and wells were washed with an additional 1 mL of methanol that was then pooled with the original. The methanol extracts were then dried under vacuum, resuspended in methanol, and analyzed by HPLC using a 250 × 4.6 and 5 μm C-18 reverse phase column with 1% TFA mobile phase in acetonitrile (ACN) gradient elution. Absorption was monitored at 425 nm, HPLC peaks were quantified using a standard curve, and picomoles of compound per million cells was calculated.

A549 = test: CCK-8 cell viability, single agent; type: cell-based, Human
Description: (§1) Cell metabolism/viability was assessed using a mitochondrial metabolism assay (CCK-8) kit (Cell Counting Kit-8, Cat: CK04, Dojindo Laboratories, Rockville, MD, USA) as previously described. Briefly, cells were seeded at a density of 3 × 10^3 cells per well in 96-well plates and allowed to adhere and stretch for 18–24 h prior to treatment. Cells were pre-treated with Ku-DBi for 24 h before bleomycin treatments. Subsequently, cells were incubated for an additional 48 h at 37 °C after which CCK-8 assay was performed. The absorbance of the formed formazan product in each well was measured at 450 nm and compared to vehicle-treated controls to determine percent cell viability. The results represent the average and SEM of triplicate determinations.

H1299 = test: CCK-8 cell viability, single agent; type: cell-based, Human
Description: as §1

H23 = test: CCK-8 cell viability, single agent; type: cell-based, Human; conditions: Homo sapiens
Description: as §1

H460 = test: CCK-8 cell viability, single agent; type: cell-based, Human; conditions: for IC50: H460, CCK-8, 72 h, mean ± SD
Description: as §1

MDA-436 = test: CCK-8 cell viability, single agent; type: cell-based, Human; conditions: Homo sapiens
Description: as §1

MDA-468 = test: CCK-8 cell viability, single agent; type: cell-based, Human; conditions: Homo sapiens
Description: as §1

H460 cells = test: 3392 and bleomycin combination, CCK-8, SynergyFinder; type: cell-based, Human
Description: as §1

A549 cells = test: Clonogenic survival in combination with IR; type: cell-based, Human; conditions: A549, 2 Gy
Description: (§2) NSCLC cells were seeded at 2 × 10^5 cells per well into 24-well plates and grown as monolayers at 37 °C and 5% CO2 in media one day before Ku-DBi or vehicle treatments. After 2 h, cells were placed on ice for 10 min and kept on ice during irradiation with either 2 or 5 Gy of 160 kVp X-rays using a Precision X-ray machine (North Branford, CT, USA) at a dose rate of 0.687 Gy/min. Radiation dosimetry measurements were performed using a Farmer-type ionization chamber (PTW Model N30013, Freiburg, Germany) in conjunction with a Keithley electrometer (Model K602, Cleveland, OH, USA). After irradiation, cells were incubated for 1 h at 37 °C, trypsinized, replated in 100 mm dishes, and incubated at 37 °C in 5% CO2. After 11 days, cells were carefully washed in PBS before fixing and staining in 0.5% crystal violet (Cat: C581-100, Fisher Scientific, Hampton, NH, USA) with 6% glutaraldehyde (Glutaraldehyde solution, 25%. Cat: O2957-1, Fisher Scientific) in PBS for 1 h at RT. The staining solution was removed, and cells were washed with water and air-dried. For clonogenic survival analysis, colonies containing more than 50 cells were manually counted and normalized to vehicle control conditions to determine surviving fractions.

H23 cells = test: Clonogenic survival in combination with IR; type: cell-based, Human
Description: as §2

Ku wild-type MEFs = test: Bleomycin sensitization, CCK-8; type: cell-based; conditions: 20 μM 3392 for 24 h, then bleomycin 48 h
Description: (§3) page 20: Supplementary Figure S4. Ku-DBi 3392 sensitivity to bleomycin in wild-type (WT) and Ku 80-null MEFs cells. MEF cells were pre-treated with vehicle or 20 μM 3392 for 24 h and then increasing concentrations of bleomycin for 48 h after which cell viability was determined by CCK-8. Data are presented as the mean and SEM of triplicate determinations. (1 picture or pasted object on this page, not shown here)

Ku80-null MEF = test: Bleomycin sensitization, CCK-8; type: cell-based; conditions: 20 μM 3392 for 24 h, then bleomycin 48 h
Description: as §3

MDA-MB-436 = test: Doxorubicin combination, CCK-8; type: cell-based, Human; conditions: BRCA1 mutant MDA-MB-436, 20 µM 3392 pre-treatment 3 h, doxorubicin 72 h
Description: Supplementary Figure S5. Decreased sensitivity to Doxorubicin mediated by Ku-DBi in MDA-436 cells. […] (B) Pre-treatment with vehicle or 20 µM 3392 and media removed after 3 h, prior 72 h doxorubicin treatment after which cell viability was determined by CCK-8. Data are presented as the mean and SEM of triplicate determinations. […]

- Uptake time course, initial rate and steady-state uptake (H460 NSCLC cells): higher cellular levels than 3395
- Cellular uptake, fold more efficient than methoxy-derivatives 3395 and 3649 (H460 NSCLC cells; media with 10% FBS): ~ 3 fold
- IC50 (A549; Homo sapiens, A549, CCK-8, 72 h, mean ± SD): > 50 µM
- IC50 (H1299; Homo sapiens, NCI-H1299, H1299, CCK-8, 72 h, mean ± SD): > 50 µM
- IC50 (H460): 7.7 ± 0.6 µM
- IC50 (H460; Homo sapiens, NCI-H460, 72 h): ~8 µM
SMILES: COc1ccc(-c2ccc(/C=C3\C(=O)N(c4cccc(C(=O)O)c4)c4ccccc43)o2)cc1C(=O)Nc1cccc(OC(F)(F)F)c1 [GL-3392]
- Cell viability at the highest concentrations assessed (A549; A549): ~50%
- viability at 25 µM (A549; Homo sapiens, A549, 25 µM): 46.2 ± 3.8%
- Cell viability at the highest concentrations assessed (H1299; H1299): ~ 90%
- viability at 25 µM (H1299; Homo sapiens, NCI-H1299, H1299, 25 µM): 89.9 ± 10.1%
- IC50 (H23; NCI-H23, 72 h, H23, CCK-8, 72 h, mean ± SD): ~8 µM
- viability at 25 µM (H23; NCI-H23, H23, 25 µM): 12.7 ± 0.7%
- viability at 25 µM (H460; Homo sapiens, NCI-H460, H460, 25 µM): 12.3 ± 0.6%
- viability at 25 µM (MDA-436; MDA-436, 25 µM): 43.9 ± 2.6%
- IC50 (MDA-436; MDA-436, CCK-8, 72 h, mean ± SD): 22.2 ± 1.4 µM
- viability at 25 µM (MDA-468; MDA-468, 25 µM): 29.4 ± 1.3%
- IC50 (MDA-468; MDA-468, CCK-8, 72 h, mean ± SD): 10.4 ± 1.5 µM
- Type of interaction with bleomycin (HSA and Bliss models) (H460 cells; H460, 3392 combined with bleomycin): additive interaction
- inhibition at 5 µM (H460 cells; Homo sapiens, NCI-H460, H460, bleomycin 0 μM, GL-3392 5 μM, read-out: Response matrix for inhibition): 34%
- inhibition at 10 µM (H460 cells; Homo sapiens, NCI-H460, H460, bleomycin 0 μM, GL-3392 10 μM, read-out: Response matrix for inhibition): 78.9%
- inhibition at 15 µM (H460 cells; Homo sapiens, NCI-H460, H460, bleomycin 0 μM, GL-3392 15 μM, read-out: Response matrix for inhibition): 79.8%
- Sensitivity in combination with IR, clonogenic survival (A549 cells): increased sensitivity when combined with a 2 Gy radiation dose
- Sensitivity in combination with IR, clonogenic survival (H23 cells; ATM-null H23, 2 Gy): minimal, statistically insignificant effect
- Sensitivity in combination with IR, clonogenic survival (H23 cells; ATM-null H23, 5 Gy): significantly sensitized
- Ku-DBi-dependent change in sensitivity to bleomycin (Ku wild-type MEFs): increases in the sensitivity to bleomycin were only observed in Ku wild-type cells
- Ku-DBi-dependent change in sensitivity to bleomycin (Ku80-null MEF): did not increase sensitivity
- Change in doxorubicin sensitivity (MDA-MB-436): decrease in Dox sensitivity
